Source: US20260207654A1, “HEPARAN SULFATE AND ITS MIMETICS AS CHEMOKINE INHIBITORS” (INDIAN INSTITUTE OF SCIENCE EDUCATION AND RESEARCH, priority 2021, published 2026)
One block for each molecule: values may come before it.

Columns and labels:
Assay in all cases: Chemokine glycan microarray binding assay
Conditions in all cases: maximum RFU set as 100% binding, average across 2 glycan concentrations and 3 chemokine dilutions (n=6)
CCL7 = CCL7 (Homo sapiens, UniProt P80098)
Method: (§1) Microarray Studies: The compounds of the present invention were covalently immobilized on epoxy group collated glass slides. Slides were rehydrated with dH2O and incubated for 30 min in a staining dish with 50° C. prewarmed ethanolamine (0.05 M) in Tris-HCl (0.1 M, pH 9.0) to block the remaining reactive epoxy groups on the slide surface, then washed with 50° C. prewarmed dH2O. Slides were centrifuged at 200 g for 3 min, then fitted with the ProPlate Multi-Array 16-well slide module (Grace Bio-lab P37001) to divide into the subarrays (blocks). Slides were washed with PBST (0.1% Tween 20), aspirated, and blocked with 200 μL/subarray of blocking buffer (PBS pH 7.3+1% w/v ovalbumin) for 1 h at RT with gentle shaking. Next, the blocking solution was aspirated and 100 μL/block of primary chemokines diluted in PBS pH 7.3+1% w/v ovalbumin were incubated with gentle shaking for 2 hours at RT. Slides were washed 4 times with PBST, then with PBS (without Tween-20) for 2 min. Bound antibodies were detected by incubating with biotinylated secondary detections (1 ng/μL) diluted in PBS, 200 μL/block at RT for 1 h. Slides were washed 4 times with PBST, then with PBS (without Tween-20) for 2 min and biotinylated antibodies were detected with Cy3-SA ([…]). Slides were washed 4 times with PBST, then with PBS for 10 min followed by removal from the ProPlate Multi-Array slide module and immediately dipping in a staining dish with dH2O for 10 min with shaking. The slides were then centrifuged at 200 g for 3 min, and the dry slides immediately scanned. Binding was tested at three serial dilutions, then detected with the relevant biotinylated secondary antibody (1 μg/mL) followed by Cy3-strepavidin (1.5 μg/mL). Arrays were scanned and RFUs were calculated of chemokines binding to 100 μM glycans printed at four replicates. Rank binding of chemokines (each at three dilutions) to glycans printed at four replicates each was calculated and summarized in Table 1. For each binding assay per printed block, the maximum RFU was determined and set as 100% binding. Then, binding to all other glycans in the same block was ranked in comparison to the maximal binding, and average rank binding (and SEM) for each glycan across the three examined concentrations of each chemokine was calculated. This analysis allowed to compare the glycan-binding profiles of the different chemokines and dissect their binding preferences.
(§2) Table 1. Chemokine glycan microarray binding assay. Binding was tested at 3 serial dilutions, then detected with the relevant biotinylated secondary antibody (1 μg/ml) followed by Cy3-Strepavidin (1.5 μg/ml) (Table SX). Arrays were scanned, relative fluorescent units (RFU) obtained, and maximum RFU determined and set as 100% binding. Then rank binding (per printed glycan per concentration, per each chemokine dilution, per printed block) was determined. Since each glycans was printed at 2 concentration, 100% binding was set separately for each concentration. Then, binding to all the other glycans at the same concentration was ranked in comparison to the maximal binding, and the average rank binding and SEM for each glycan across the two glycan concentrations and three examined dilutions of each chemokine was calculated (n=6, 2 glycan concentrations across 3 chemokine dilutions). This analysis allowed to compare the glycan binding profiles of the different chemokines and dissect their binding preferences. The mean rank is shown as a heatmap of all the examined binding assays together (red highest, blue lowest and white 50th percentile of ranking).

CXCL8 = target: T1, CXCL8 (Homo sapiens, UniProt P10145)
T1 sequence (P10145 21-99): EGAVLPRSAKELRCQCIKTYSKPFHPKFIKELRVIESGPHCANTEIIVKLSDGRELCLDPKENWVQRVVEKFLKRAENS
Method: as §1, §2

CCL2 = CCL2 (Homo sapiens, UniProt P13500)
Method: as §1, §2

CXCL12 = CXCL12 (Homo sapiens, UniProt P48061)
Method: as §1, §2

CCL13 = CCL13 (Homo sapiens, UniProt Q99616)
Method: as §1, §2

CCL5 = target: T2, CCL5 (Homo sapiens, UniProt P13501)
T2 sequence (P13501 24-91): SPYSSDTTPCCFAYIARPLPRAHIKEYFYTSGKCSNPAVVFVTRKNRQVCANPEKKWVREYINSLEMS
Method: as §1, §2

CXCL10 = target: T3, CXCL10 (Homo sapiens, UniProt P02778)
T3 sequence (P02778 22-98): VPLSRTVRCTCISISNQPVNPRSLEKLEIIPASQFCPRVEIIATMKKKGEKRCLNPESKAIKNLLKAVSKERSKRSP
Method: as §1, §2

CCL28 = target: T4, CCL28 (Homo sapiens, UniProt Q9NRJ3)
T4 sequence (Q9NRJ3 20-127): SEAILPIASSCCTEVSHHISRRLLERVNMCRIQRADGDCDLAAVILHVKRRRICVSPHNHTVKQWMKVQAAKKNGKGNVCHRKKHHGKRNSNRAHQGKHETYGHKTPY
Method: as §1, §2

CCL21 = target: T5, CCL21 (Homo sapiens, UniProt O00585)
T5 sequence (O00585 24-134): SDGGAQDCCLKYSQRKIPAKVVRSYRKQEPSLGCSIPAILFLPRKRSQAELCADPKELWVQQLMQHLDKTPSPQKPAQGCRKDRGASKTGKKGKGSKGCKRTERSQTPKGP
Method: as §1, §2

Chain of CCL7 (P80098 24-99, species assumed): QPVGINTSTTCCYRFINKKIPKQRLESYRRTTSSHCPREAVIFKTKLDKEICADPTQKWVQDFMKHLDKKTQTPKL
Chain of CCL2 (P13500 24-99, species assumed): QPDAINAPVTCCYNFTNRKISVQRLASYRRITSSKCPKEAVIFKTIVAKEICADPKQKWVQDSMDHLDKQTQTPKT
Chain of CCL13 (Q99616 17-98, species assumed): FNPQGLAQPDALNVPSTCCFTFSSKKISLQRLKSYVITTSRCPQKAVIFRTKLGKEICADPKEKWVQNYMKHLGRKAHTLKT
Chain of CXCL12 (P48061 22-93, species assumed): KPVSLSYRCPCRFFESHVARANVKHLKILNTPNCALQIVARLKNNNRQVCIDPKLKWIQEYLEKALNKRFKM

mean rank binding to CCL7 (CCL7): 11%
mean rank binding to CXCL8 (CXCL8): 5%
mean rank binding to CCL2 (CCL2): 1%
mean rank binding to CXCL12 (CXCL12): 25%
mean rank binding to CCL13 (CCL13): 45%
mean rank binding to CCL5 (CCL5): 3%
mean rank binding to CXCL10 (CXCL10): 15%
mean rank binding to CCL28 (CCL28): 38%
mean rank binding to CCL21 (CCL21): 25%
Compound: NCCCO[C@@H]1OC(C(=O)O)[C@@H](O[C@H]2OC(COS(=O)(=O)O)[C@@H](O[C@@H]3OC(C(=O)O)[C@@H](O[C@H]4OC(COS(=O)(=O)O)[C@@H](O)[C@H](O)C4N)C(O)[C@@H]3O)[C@H](O)C2N)C(O)[C@@H]1O (stereo partly drawn) [Example 23, 3-Aminopropyl-O-[(2-amino-6-O-sulfonato-2-deoxy-α-D-glucopyranosyl)-(1→4)-O-(α-L-idopyranosyluronate)-(1→4)-O-(2-amino-6-O-sulfonato-2-deoxy-α-D-glucopyranosyl)]-(1→4)-O-α-L-idopyranosiduronate]

mean rank binding to CCL7 (CCL7): 56%
mean rank binding to CXCL8 (CXCL8): 29%
mean rank binding to CCL2 (CCL2): 2%
mean rank binding to CXCL12 (CXCL12): 59%
mean rank binding to CCL13 (CCL13): 87%
mean rank binding to CCL5 (CCL5): 14%
mean rank binding to CXCL10 (CXCL10): 55%
mean rank binding to CCL28 (CCL28): 78%
mean rank binding to CCL21 (CCL21): 78%
Compound: CC(=O)N[C@H]1[C@@H](O[C@H]2[C@H](O)[C@@H](OP(=O)(O)O)[C@H](OCCCN)O[C@H]2C(=O)O)O[C@H](COP(=O)(O)O)[C@@H](O[C@@H]2O[C@@H](C(=O)O)[C@@H](O[C@H]3O[C@H](COP(=O)(O)O)[C@@H](O)[C@H](O)[C@H]3NC(C)=O)[C@H](O)[C@H]2OP(=O)(O)O)[C@@H]1O [Example 21, 3-Aminopropyl-O-[(2-acetamido-6-O-phosphonato-2-deoxy-α-D-glucopyranosyl)-(1→4)-O-(2-O-phosphonato-α-L-idopyranosyluronate)-(1→4)-O-(2-acetamido-6-O-phosphonato-2-deoxy-α-D-glucopyranosyl)]-(1→4)-O-2-O-phosphonato-α-L-idopyranosiduronate]

The remaining lines, values behind:

Compound: NCCOCCO[C@@H]1O[C@@H](C(=O)O)[C@@H](OS(=O)(=O)O)[C@H](O)[C@H]1OS(=O)(=O)O [Example 3, Ethoxy-2-aminoethoxyl-O-(2,4-O-disulfonato)-α-L-idopyranoside Uronic Acid]
mean rank binding to CCL7 (CCL7): 17%
mean rank binding to CXCL8 (CXCL8): 5%
mean rank binding to CCL2 (CCL2): 0%
mean rank binding to CXCL12 (CXCL12): 38%
mean rank binding to CCL13 (CCL13): 69%
mean rank binding to CCL5 (CCL5): 1%
mean rank binding to CXCL10 (CXCL10): 24%
mean rank binding to CCL28 (CCL28): 72%
mean rank binding to CCL21 (CCL21): 46%

Compound: NCCOCCO[C@@H]1O[C@@H](C(=O)O)[C@@H](OS(=O)(=O)O)[C@H](O)[C@H]1O [Example 2, Ethoxy-2-aminoethoxyl-O-(4-O-sulfonato)-α-L-idopyranoside Uronic Acid]
mean rank binding to CCL7 (CCL7): 30%
mean rank binding to CXCL8 (CXCL8): 12%
mean rank binding to CCL2 (CCL2): 2%
mean rank binding to CXCL12 (CXCL12): 66%
mean rank binding to CCL13 (CCL13): 82%
mean rank binding to CCL5 (CCL5): 2%
mean rank binding to CXCL10 (CXCL10): 45%
mean rank binding to CCL28 (CCL28): 58%
mean rank binding to CCL21 (CCL21): 63%

Compound: CC(=O)NC1C(O)[C@H](O)C(CO)O[C@@H]1O[C@@H]1C(C(=O)O)O[C@@H](O[C@@H]2C(CO)O[C@H](O[C@@H]3C(C(=O)O)O[C@@H](OCCCN)C(O)C3O)C(NC(C)=O)C2O)C(O)C1O (stereo partly drawn) [Example 16, 3-Aminopropyl-O-[(2-acetamido-2-deoxy-α-D-glucopyranosyl)-(1→4)-O-(α-L-idopyranosyluronate)-(1→4)-O-(2-acetamido-2-deoxy-α-D-glucopyranosyl)]-(1→4)-O-α-L-idopyranosiduronate]
mean rank binding to CCL7 (CCL7): 2%
mean rank binding to CXCL8 (CXCL8): 3%
mean rank binding to CCL2 (CCL2): 0%
mean rank binding to CXCL12 (CXCL12): 16%
mean rank binding to CCL13 (CCL13): 24%
mean rank binding to CCL5 (CCL5): 1%
mean rank binding to CXCL10 (CXCL10): 14%
mean rank binding to CCL28 (CCL28): 22%
mean rank binding to CCL21 (CCL21): 27%

Compound: NCCOCCO[C@@H]1OC(C(=O)O)[C@@H](O[C@@H]2OC(C(=O)O)[C@@H](O[C@@H]3OC(C(=O)O)[C@@H](O)C(O)C3O)C(O)C2O)C(O)C1O (stereo partly drawn) [Example 7, Ethoxy-2-aminoethoxyl-O-(α-L-idopyranosyl Uronic Acid-α(1→4)-α-L-idopyranosyl Uronic Acid-α(1→4))-α-L-idopyranoside Uronic Acid]
mean rank binding to CCL7 (CCL7): 75%
mean rank binding to CXCL8 (CXCL8): 63%
mean rank binding to CCL2 (CCL2): 36%
mean rank binding to CXCL12 (CXCL12): 92%
mean rank binding to CCL13 (CCL13): 86%
mean rank binding to CCL5 (CCL5): 30%
mean rank binding to CXCL10 (CXCL10): 78%
mean rank binding to CCL28 (CCL28): 80%
mean rank binding to CCL21 (CCL21): 83%

Compound: NCCOCCO[C@@H]1O[C@@H](C(=O)O)[C@@H](O[C@@H]2O[C@@H](C(=O)O)[C@@H](O[C@@H]3O[C@@H](C(=O)O)[C@@H](O[C@@H]4O[C@@H](C(=O)O)[C@@H](OS(=O)(=O)O)[C@H](O)[C@H]4O)[C@H](O)[C@H]3O)[C@H](O)[C@H]2O)[C@H](O)[C@H]1O [Example 11, Ethoxy-2-aminoethoxyl-O-(4-O-sulfonato)-α-L-idopyranosyl Uronic Acid-α(1→4)-α-L-Idopyranosyl Uronic Acid-α(1→4)-α-L-idopyranosyl Uronic Acid-α(1→4)-α-L-idopyranoside Uronic Acid]
mean rank binding to CCL7 (CCL7): 79%
mean rank binding to CXCL8 (CXCL8): 95%
mean rank binding to CCL2 (CCL2): 67%
mean rank binding to CXCL12 (CXCL12): 82%
mean rank binding to CCL13 (CCL13): 67%
mean rank binding to CCL5 (CCL5): 80%
mean rank binding to CXCL10 (CXCL10): 74%
mean rank binding to CCL28 (CCL28): 84%
mean rank binding to CCL21 (CCL21): 80%
